Measured values reported in patent publication US6525001B1, “Substituted pyrimidine and pyridine herbicides” (Mid-American Commercialization Corporation, priority 1997, dated 2003).

What was measured:
Assay type in all cases: in vivo
[1] = tested on: giant foxtail (Setaria faberii); experiment: Test B pre-/postemergence; design: key: 0 is no effect; 10 is complete control
Procedure, shortened: (§1)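 Seeds were planted and sprayed preemergence, while plants at 2 to 18 cm (1- to 4-leaf stage) were sprayed postemergence at the same time, with test chemical in a non-phytotoxic solvent mixture containing surfactant. After twelve to sixteen days in a greenhouse, injury was rated visually against untreated controls on a 0–10 scale.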

[2] = tested on: purple nutsedge (Cyperus rotundus); experiment: Test B pre-/postemergence; design: key: 0 is no effect; 10 is complete control
Procedure, shortened: as §1

[3] = tested on: bamyardgrass (Echinochloa crus-galli); experiment: Test B flood test
Procedure, shortened: (§2)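 Plants were grown to the 2-leaf stage before treatment with test chemical, then held in a greenhouse for twelve to sixteen days. Injury was visually rated against untreated controls on a 0–10 scale, where 0 is no effect and 10 is complete control.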

[4] = tested on: duck salad (Heteranthera limosa); experiment: Test B flood test
Procedure, shortened: as §2

rice (Oryza sativa) = experiment: Test B flood test
Procedure, shortened: as §2

[5] = tested on: smallflower flatsedge (Cyperus difformis); experiment: Test B flood test
Procedure, shortened: as §2

[6] = tested on: arrowleaf sida (Sida rhombifolia); experiment: Test C; design: key: 0 was no effect; 100 was complete control; details: PREEMERGENCE
corn (Zea mays) = experiment: Test C; design: key: 0 was no effect; 100 was complete control; details: PREEMERGENCE
[7] = tested on: eastern black nightshade (Solanum ptycanthum); experiment: Test C; design: key: 0 was no effect; 100 was complete control; details: PREEMERGENCE
[8] = tested on: giant foxtail (Setaria faberii); experiment: Test C; design: key: 0 was no effect; 100 was complete control; details: PREEMERGENCE
[9] = tested on: ivyleaf morningglory (Ipomoea hederacea); experiment: Test C; design: key: 0 was no effect; 100 was complete control; details: PREEMERGENCE
[10] = tested on: purple nutsedge (Cyperus rotundus); experiment: Test C; design: key: 0 was no effect; 100 was complete control; details: PREEMERGENCE
[11] = tested on: redroot pigweed (Amaranthus retroflexus); experiment: Test C; design: key: 0 was no effect; 100 was complete control; details: PREEMERGENCE
soybean (Glycine max) = experiment: Test C; design: key: 0 was no effect; 100 was complete control; details: PREEMERGENCE
[12] = tested on: surinam grass (Brachiaria decumbens); experiment: Test C; details: PREEMERGENCE
[13] = Rate 62 g/ha, Postemergence (flood test)
[14] = Rate 125 g/ha, Postemergence section (flood test species)
[15] = Rate 250 g/ha, Postemergence (flood test species)
[16] = Rate 500 g/ha, Postemergence (flood test species)

## Cc1cnc(-n2ccc(C(F)(F)F)n2)nc1Cn1ccc(C(F)(F)F)n1 [Compound 52]
[1]; Rate 62 g/ha, Postemergence
  Plant response rating, Giant foxtail: 7
[1]; Rate 62 g/ha, Preemergence
  Giant foxtail plant response rating: 9
[1]; Rate 125 g/ha, Postemergence
  Giant foxtail plant response rating: 8
[1]; Rate 125 g/ha, Preemergence
  Plant response rating, Giant foxtail: 9
[1]; Rate 250 g/ha, Postemergence
  Plant response rating, Giant foxtail: 9
[1]; Rate 250 g/ha, Preemergence
  Plant response rating, Giant foxtail: 10
[1]; Rate 500 g/ha, Postemergence
  Plant response rating, Giant foxtail: 9
[1]; Rate 500 g/ha, Preemergence
  Plant response rating, Giant foxtail: 10
[2]; Rate 62 g/ha, Postemergence
  Plant response rating, Nutsedge: 1
[2]; Rate 62 g/ha, Preemergence
  Nutsedge plant response rating: 0
[2]; Rate 125 g/ha, Postemergence
  Nutsedge plant response rating: 3
[2]; Rate 500 g/ha, Postemergence
  Plant response rating, Nutsedge: 7
[2]; Rate 500 g/ha, Preemergence
  Plant response rating, Nutsedge: 1
[3]; [13]
  Plant response rating, Barnyardgrass: 5
[3]; [14]
  Barnyardgrass plant response rating: 6
[3]; [15]
  Plant response rating, Barnyardgrass: 7
[3]; [16]
  Plant response rating, Barnyardgrass: 8
[4]; [13]
  Plant response rating, Ducksalad: 9
[4]; [14]
  Ducksalad plant response rating: 9
[4]; [15]
  Plant response rating, Ducksalad: 9
[4]; [16]
  Plant response rating, Ducksalad: 9
Rice (Oryza sativa); [13]
  Plant response rating, Rice: 3
Rice (Oryza sativa); [14]
  Rice plant response rating: 5
Rice (Oryza sativa); [15]
  Plant response rating, Rice: 7
Rice (Oryza sativa); [16]
  Plant response rating, Rice: 7
[5]; [13]
  Plant response rating, S. Flatsedge: 9
[5]; [14]
  S. Flatsedge plant response rating: 9
[5]; [15]
  Plant response rating, S. Flatsedge: 9
[5]; [16]
  Plant response rating, S. Flatsedge: 9
[6]; Rate 35 g/ha
  Plant response rating, Arrowleaf sida: 100
[6]; Rate 70 g/ha
  Plant response rating, Arrowleaf sida: 100
[6]; Rate 140 g/ha
  Plant response rating, Arrowleaf sida: 100
Corn (Zea mays); Rate 35 g/ha
  Plant response rating, Corn: 0
Corn (Zea mays); Rate 70 g/ha
  Plant response rating, Corn: 45
Corn (Zea mays); Rate 140 g/ha
  Plant response rating, Corn: 50
[7]; Rate 35 g/ha
  Plant response rating, E. blacknightsh: 40
[7]; Rate 70 g/ha
  Plant response rating, E. blacknightsh: 80
[7]; Rate 140 g/ha
  Plant response rating, E. blacknightsh: 100
[8]; Rate 35 g/ha
  Plant response rating, Giant foxtail: 70
[8]; Rate 70 g/ha
  Plant response rating, Giant foxtail: 85
[8]; Rate 140 g/ha
  Plant response rating, Giant foxtail: 100
[9]; Rate 35 g/ha
  Plant response rating, I. morningglory: 5
[9]; Rate 70 g/ha
  Plant response rating, I. morningglory: 100
[9]; Rate 140 g/ha
  Plant response rating, I. morningglory: 100
[10]; Rate 35 g/ha
  Plant response rating, Purple nutsedge: 0
[10]; Rate 70 g/ha
  Plant response rating, Purple nutsedge: 5
[10]; Rate 140 g/ha
  Plant response rating, Purple nutsedge: 10
[11]; Rate 35 g/ha
  Plant response rating, Redroot pigweed: 100
[11]; Rate 70 g/ha
  Plant response rating, Redroot pigweed: 100
[11]; Rate 140 g/ha
  Plant response rating, Redroot pigweed: 100
Soybean (Glycine max); Rate 35 g/ha
  Plant response rating, Soybean: 0
Soybean (Glycine max); Rate 70 g/ha
  Plant response rating, Soybean: 55
Soybean (Glycine max); Rate 140 g/ha
  Plant response rating, Soybean: 70
[12]; Rate 35 g/ha
  Plant response rating, Surinam grass: 5
[12]; Rate 70 g/ha
  Plant response rating, Surinam grass: 40
[12]; Rate 140 g/ha
  Plant response rating, Surinam grass: 70
